Test results taken from US20210221785A1, “AMINO-PYRIMIDONYL DERIVATIVES, A PROCESS FOR THEIR PREPARATION AND PHARMACEUTICAL COMPOSITIONS CONTAINING THEM” (LES LABORATOIRES SERVIER, priority 2018, published 2021).

What follows are molecules tested against T1, His-His-USP7 (aa208-560, |C315A|) (Homo sapiens, UniProt Q93009, C315A) (assay: Evaluation of the inhibition of USP7 by the Fluorescence Intensity (FLINT) readings). Conditions: 0.25 nM His-His-USP7, compound incubated 60 minutes at 30° C., 500 nM Ubiquitin-Rhodamine-110 substrate; 50% reduction in kinetic rate.
T1 construct: His-His-USP7 (aa208-560, |C315A|); His-His (N)
T1 sequence (Q93009 208-560 C315A): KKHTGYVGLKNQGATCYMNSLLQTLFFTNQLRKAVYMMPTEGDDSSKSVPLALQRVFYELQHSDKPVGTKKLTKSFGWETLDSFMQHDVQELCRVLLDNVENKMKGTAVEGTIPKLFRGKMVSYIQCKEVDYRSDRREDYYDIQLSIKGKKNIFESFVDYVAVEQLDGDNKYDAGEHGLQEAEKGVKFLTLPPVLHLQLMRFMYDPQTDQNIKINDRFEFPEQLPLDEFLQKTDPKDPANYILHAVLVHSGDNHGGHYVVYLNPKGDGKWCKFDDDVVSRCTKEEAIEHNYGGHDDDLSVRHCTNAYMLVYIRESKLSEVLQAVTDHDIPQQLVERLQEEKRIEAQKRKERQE
Type: biochemical
Method: USP7 activity was measured using Rhodamine-110 c-terminal labelled Ubiquitin as a substrate (UbiQ Bio). Incubation with USP7 results in the release of Rhodamine-110 leading to an increase in fluorescence which can be used in the continuous measurement of USP7 activity.
The USP7 reactions were performed in a 50 μL volume, in 384 well black solid low binding plates (Corning #3575). The reaction buffer consisted of 100 mM Bicine pH 8.0, 0.01% TritonX100, 1 mM TCEP, and 10% DMSO.
0.25 nM His-His-USP7 (aa208-560, |C315A|) was incubated with compound (final concentration 10% DMSO) for 60 minutes at 30° C. The reaction was then initiated by the addition of 500 nM Ubiquitin-Rhodamme-110 substrate and the plate read every 3 minutes for 21 minutes to measure the release of Rhodamine-110. Fluorescence Intensity (FLINT) readings were measured using a […] plate reader (Ex.485 nm, Em.535 nm).
The inhibition of increasing doses of compound was expressed as a percentage reduction in kinetic rate compared to the kinetic rates established between ‘DMSO only’ and ‘total inhibition’ controls (no USP7). The inhibitory concentrations that gave a 50% reduction in kinetic rate (IC50) were determined, from 11-point dose response cures, in XL-Fit using a 4-Parameter Logistic Model 205 (Sigmoidal Dose-Response Model).
For `Nc1c(Oc2ccc(F)cc2)ncn(CC2(O)CCN(C(=O)[C@@H]3CC[C@@](F)(C#Cc4ccccn4)C[C@H]3c3ccccc3)CC2)c1=O` [Example 131, 5-amino-3-[(1-{[(1R,2R,4S)-4-fluoro-2-phenyl-4-[2-(pyridin-2-yl)ethynyl]cyclohexyl]carbonyl}-4-hydroxypiperidin-4-yl)methyl]-6-(4-fluorophenoxy)pyrimidin-4-one], the IC50 was 21.8 nM.
In the case of `Nc1c(Oc2ccc(CN(C=O)CC(F)(F)F)cc2)ncn(CC2(O)CCN(C(=O)[C@@H]3CCC(F)(F)C[C@H]3c3ccccc3)CC2)c1=O` [Example 74, N-[(4-{[5-amino-1-({1-[(1R,2R)-4,4-difluoro-2-phenylcyclohexane-1-carbonyl]-4-hydroxypiperidin-4-yl}methyl)-6-oxo-1,6-dihydropyrimidin-4-yl]oxy}phenyl)methyl]-N-(2,2,2-trifluoroethyl)formamide], the IC50 is reported as 227 nM.
`Nc1c(Oc2cccc(C3CCCCN3)c2)ncn(CC2(O)CCN(C(=O)[C@@H]3CCC(F)(F)C[C@H]3c3ccccc3)CC2)c1=O` (stereo partly drawn) [Example 47, 5-amino-3-({1-[(1R,2R)-4,4-difluoro-2-phenylcyclohexane-1-carbonyl]-4-hydroxypiperidin-4-yl}methyl)-6-[3-(piperidin-2-yl)phenoxy]pyrimidin-4(3H)-one] showed an IC50 of 8.81 nM.
In the case of `Cn1ccnc1C[C@@]1(O)CC[C@@H](C(=O)N2CCC(O)(Cn3cnc(Oc4ccc(F)cc4)c(N)c3=O)CC2)[C@H](c2ccccc2)C1` (relative stereo) [Example 101, rel-5-amino-6-(4-fluorophenoxy)-3-({4-hydroxy-1-[(1R,2R,4R)-4-hydroxy-4-[(1-methyl-1H-imidazol-2-yl)methyl]-2-phenyl-cyclohexanecarbonyl]piperidin-4-yl)}methyl)-3,4-dihydropyrimidin-4-one], the IC50 is reported as 363 nM.
`C#C[C@@]1(O)CC[C@@H](C(=O)N2CCC(O)(Cn3cnc(Oc4ccc(F)cc4)c(N)c3=O)CC2)[C@H](c2ccccc2)C1` (relative stereo) [Example 91, rel-5-amino-3-([1-[(1R,2R,4R)-4-ethynyl-4-hydroxy-2-phenyl-cyclohexanecarbonyl]-4-hydroxypiperidin-4-yl]methyl)-6-(4-fluorophenoxy)-3,4-dihydropyrimidin-4-one] showed an IC50 of 289 nM.
Molecule `CO[C@]1(C(=O)N2CCC(O)(Cn3cnc(Oc4ccc(F)cc4)c(N)c3=O)CC2)CC[C@H](C#Cc2nccn2C)C[C@@H]1c1ccccc1` [Example 160, 5-amino-6-(4-fluorophenoxy)-3-[(4-hydroxy-1-{[(1R,2R,4S)-1-methoxy-4-[2-(1-methylimidazol-2-yl)ethynyl]-2-phenylcyclohexyl]carbonyl}piperidin-4-yl)methyl]pyrimidin-4-one] has an IC50 of 138 nM.
`Nc1c(Oc2ccc(CCF)cc2)ncn(CC2(O)CCN(C(=O)[C@@H]3CCC(F)(F)C[C@H]3c3ccccc3)CC2)c1=O` [Example 39, 5-amino-3-({1-[(1R,2R)-4,4-difluoro-2-phenylcyclohexane-1-carbanyl]-4-hydroxypiperidin-4-yl}methyl)-6-[4-(2-fluoroethyl)phenoxy]pyrimidin4(3H)-one] was tested, and the IC50 was 116 nM.
Work on `Nc1c(Oc2ccc(F)cc2)ncn(CC2(O)CCN(C(=O)[C@@H]3CC[C@@](O)(c4ccccc4)C[C@H]3c3ccccc3)CC2)c1=O` (relative stereo) [Example 103, rel-5-amino-6-(4-fluorophenoxy)-3-[(4-hydroxy-1-{[(1R,2R,4S)-4-hydroxy-2,4-diphenylcyclohexyl]carbonyl}piperidin-4-yl)methyl]pyrimidin-4-one] yielded an IC50 of 312 nM.
Work on `Nc1c(Oc2ccc(F)cc2)ncn(CC2(O)CCN(C(=O)[C@@H]3CCC(F)(F)C[C@H]3c3ccco3)CC2)c1=O` (relative stereo) [Example 88, 5-amino-3-({1-[(1,2-trans)-4,4-difluoro-2-(furan-2-yl)cyclohexane-1-carbonyl]-4-hydroxypiperidin-4-yl}methyl)-6-(4-fluorophenoxy)pyrimidin-4(3H)-one] yielded an IC50 of 111 nM.
`CC1(F)CC[C@@H](C(=O)N2CCC(O)(Cn3cnc(-c4ccc(F)cc4)c(N)c3=O)CC2)[C@H](c2ccccc2)C1` (relative stereo) [Example 127, rel-5-amino-3-[(1-{[(1R,2R)-4-fluoro-4-methyl-2-phenylcyclohexyl]carbonyl}-4-hydroxypiperidin-4-yl)methyl]-6-(4-fluorophenyl)pyrimidin-4-one] showed an IC50 of 46.6 nM.
Work on `Nc1c(Oc2cccc(F)c2)ncn(CC2(O)CCN(C(=O)[C@@H]3CCC(F)(F)C[C@H]3c3ccccc3)CC2)c1=O` [Example 6, 5-amino-3-({1-[(1R,2R)-4,4-difluoro-2-phenylcyclohexane-1-carbonyl]-4-hydroxypiperidin-4-yl}methyl)-6-(3-fluorophenoxy)pyrimidin-4(3H)-one] yielded an IC50 of 183 nM.
`NC(=O)c1ccc(Oc2ncn(CC3(O)CCN(C(=O)[C@@H]4CCC(F)(F)C[C@H]4c4ccccc4)CC3)c(=O)c2N)c(Cl)c1` [Example 107, 4-{[5-amino-1-({1-[(1R,2R)-4,4-difluoro-2-phenylcyclohexane-1-carbonyl]-4-hydroxypiperidin-4-yl}methyl)6-oxo-1,6-dihydropyrimidin-4-yl]oxy}-3-chlorobenzamide] was tested, and the IC50 was 479 nM.
Molecule `NC(=O)c1ccc(Oc2ncn(CC3(O)CCN(C(=O)[C@@H]4CCC(F)(F)C[C@H]4c4ccccc4)CC3)c(=O)c2N)cc1Cl` [Example 80, 4-{[5-amino-1-({1-[(1R,2R)-4,4-difluoro-2-phenylcyclohexane-1-carbonyl]-4-hydroxypiperidin-4-yl}methyl)-6-oxo-1,6-dihydropyrimidin-4-yl]oxy}-2-chlorobentamide] has an IC50 of 375 nM.
In the case of `Nc1c(Oc2ccc(F)c(OC(F)(F)F)c2)ncn(CC2(O)CCN(C(=O)[C@@H]3CCC(F)(F)C[C@H]3c3ccccc3)CC2)c1=O` [Example 40, 5-amino-3-({1-[(1R,2R)-4,4-difluoro-2-phenylcyclohexane-1-carbonyl]-4-hydroxypiperidin-4-yl}methyl)-6-[4-fluoro-3-(trifluoromethoxy)phenoxy]pyrimidin-4(3H)-one], the IC50 is reported as 132 nM.
With `Nc1c(Oc2ccc(F)cc2)ncn(CC2(O)CCN(C(=O)[C@@H]3CC[C@](O)(c4ccccc4)C[C@H]3c3ccccc3)CC2)c1=O` (relative stereo) [Example 102, rel-5-amino-6-(4-fluorophenoxy)-3-[(4-hydroxy-1-{[(1R,2R,4R)-4-hydroxy-2,4-diphenylcyclohexyl]carbonyl}piperidin-4-yl)methyl]pyrimidin-4-one] the IC50 was 461 nM.
Work on `O=C([C@@H]1CCC(F)(F)C[C@H]1c1ccccc1)N1CCC(O)(Cn2cnc(Oc3ccc(F)cc3)c(NCc3ccccc3)c2=O)CC1` [Example 57, 5-(benzylamino)-3-({1-[(1R,2R)-4,4-difluoro-2-phenylcyclohexane-1-carbonyl]-4-hydroxypiperidin-4-yl}methyl)-6-(4-fluorophenoxy)pyrimidin-4(3H)-one] yielded an IC50 of 611 nM.
Molecule `Nc1c(Oc2ccc(F)cc2)ncn(CC2(O)CCN(C(=O)[C@@H]3CC[C@@](F)(C#Cc4ccccc4)C[C@H]3c3ccccc3)CC2)c1=O` [Example 136, 5-amino-3-({1-[(1R,2R,4S)-4-fluoro-2-phenyl-4-(2-phenylethynyl)cyclobexanecarbonyl]-4-hydroxypiperidin-4-yl}methyl)-6-(4-fluorophenoxy)-3,4-dihydropyrimidin-4-one] has an IC50 of 197 nM.
For `Nc1c(Oc2ccccc2)ncn(C[C@]2(O)CCN(C(=O)[C@@H]3CCC(F)(F)C[C@H]3c3ccccc3)CC2(F)F)c1=O` [Example 10, 5-amino-3-[[(4R)-1-[(1R,2R)-4,4-difluoro-2-phenyl-cyclohexanecarbonyl]-3,3-difluoro-4-hydroxy-4-piperidyl]methyl]-6-phenoxy-pyrimidin-4-one], the IC50 was 4320 nM.
With `O=C([C@@H]1CCC(F)(F)C[C@H]1c1ccccc1)N1CCC(O)(Cn2cnc(Oc3ccccc3)c(NCC(F)(F)F)c2=O)CC1` [Example 17, 3-({1-[(1R,2R)-4,4-difluoro-2-phenylcyclohexane-1-carbonyl]-4-hydroxypiperidin-4-yl}methyl)-6-phenoxy-5-[(2,2,2-trifluoroethyl)amino]pyrimidin-4(3H)-one] the IC50 was 1250 nM.
In the case of `Nc1c(Sc2ccccc2)ncn(CC2(O)CCN(C(=O)[C@@H]3CCC(F)(F)C[C@H]3c3ccccc3)CC2)c1=O` [Example 30, 5-amino-3-({1-[(1R,2R)-4,4-difluoro-2-phenylcyclohexane-1-carbonyl]-4-hydroxypiperidin-4-yl}methyl)-6-(phenylsulfanyl)pyrimidin-4(3H)-one], the IC50 is reported as 151 nM.
For `Nc1c(Oc2ccc(F)cc2)ncn(CC2(O)CCN(C(=O)[C@@H]3CC[C@@](O)(Cc4ccc(F)cc4)C[C@H]3c3ccccc3)CC2)c1=O` (relative stereo) [Example 100, rel-5-amino-6-(4-fluorophenoxy)-3-[(1-{[(1R,2R,4S)-4-[(4-fluorophenyl)methyl]-4-hydroxy-2-phenylcyclohexyl]carbonyl}-4-hydroxypiperidin-4-yl)methyl]pyrimidin-4-one], the IC50 was 244 nM.
`COc1cc(OC)cc(Oc2ncn(CC3(O)CCN(C(=O)[C@@H]4CCC(F)(F)C[C@H]4c4ccccc4)CC3)c(=O)c2N)c1` [Example 7, 5-amino-3-({1-[(1R,2R)-4,4-difluoro-2-phenylcyclohexane-1-carbonyl]-4-hydroxypiperidin-4-yl}methyl)-6-(3,5-dimethoxyphenoxy)pyrimidin-4(3H)-one] was tested, and the IC50 was 181 nM.
